Experimental data: US4132723A, “Substituted phenyl- or cyclohex-1-en-1-yl-3,7-demethyl-nona-2,4,6-trienoic acids and derivatives thereof” (Hoffmann-La Roche Inc., priority 1973, dated 1979)

Assays:
papillomas = assay: papilloma test (tumors induced with dimethyl-benzanthracene and croton oil); format: in vivo; details: mice, intraperitoneal, 400 mg/kg/week, within 2 weeks
Experimental: The polyene compounds of formula I are useful in the topical and systemic prophylaxis and treatment of benign and malignant neoplasias and premalignant lesions. The tumor-inhibiting activity of the polyene compounds of the invention is significant. […] The diameter of such papillomas in mice decreased by 54% within 2 weeks upon the intraperitoneal administration of 3,7-dimethyl-9-(4-methoxy-2,3,6-trimethyl-phenyl)-nona-2,4,6-trien-1-oic acid at a dosage of 400 mg/kg/week.

[1] = acute toxicity in mice after intraperitoneal administration in rape oil; details: mouse, in vivo, ip

COc1cc(C)c(CC/C(C)=C/C=C/C(C)=C/C(=O)O)c(C)c1C [3,7-dimethyl-9-(4-methoxy-2,3,6-trimethyl-phenyl)-nona-2,4,6-trien-1-oic acid]
decrease in diameter of papillomas (papillomas): 54% | LD50 [1]: 1400 mg/kg | LD50 at 24 h [1]: > 4000 mg/kg | LD50 at 240 h [1]: 1400 mg/kg | LD50 at 480 h [1]: 1400 mg/kg
